Data reported in paper PMC8028158 (ACS Omega, 2021).
Entries after “also recorded” stand apart in the source; their conditions may differ.

Experiments:
Type in all cases: cell-based
mouse TRPC4 = molecular target: T1, mouse TRPC4 (Mus musculus, UniProt Q9QUQ5); assay: Selectivity assay in HEK293 cells co-expressing TRPC4 and μ-opioid receptor; details: induced by DAMGO 1 μM
T1 sequence (Q9QUQ5 1-974): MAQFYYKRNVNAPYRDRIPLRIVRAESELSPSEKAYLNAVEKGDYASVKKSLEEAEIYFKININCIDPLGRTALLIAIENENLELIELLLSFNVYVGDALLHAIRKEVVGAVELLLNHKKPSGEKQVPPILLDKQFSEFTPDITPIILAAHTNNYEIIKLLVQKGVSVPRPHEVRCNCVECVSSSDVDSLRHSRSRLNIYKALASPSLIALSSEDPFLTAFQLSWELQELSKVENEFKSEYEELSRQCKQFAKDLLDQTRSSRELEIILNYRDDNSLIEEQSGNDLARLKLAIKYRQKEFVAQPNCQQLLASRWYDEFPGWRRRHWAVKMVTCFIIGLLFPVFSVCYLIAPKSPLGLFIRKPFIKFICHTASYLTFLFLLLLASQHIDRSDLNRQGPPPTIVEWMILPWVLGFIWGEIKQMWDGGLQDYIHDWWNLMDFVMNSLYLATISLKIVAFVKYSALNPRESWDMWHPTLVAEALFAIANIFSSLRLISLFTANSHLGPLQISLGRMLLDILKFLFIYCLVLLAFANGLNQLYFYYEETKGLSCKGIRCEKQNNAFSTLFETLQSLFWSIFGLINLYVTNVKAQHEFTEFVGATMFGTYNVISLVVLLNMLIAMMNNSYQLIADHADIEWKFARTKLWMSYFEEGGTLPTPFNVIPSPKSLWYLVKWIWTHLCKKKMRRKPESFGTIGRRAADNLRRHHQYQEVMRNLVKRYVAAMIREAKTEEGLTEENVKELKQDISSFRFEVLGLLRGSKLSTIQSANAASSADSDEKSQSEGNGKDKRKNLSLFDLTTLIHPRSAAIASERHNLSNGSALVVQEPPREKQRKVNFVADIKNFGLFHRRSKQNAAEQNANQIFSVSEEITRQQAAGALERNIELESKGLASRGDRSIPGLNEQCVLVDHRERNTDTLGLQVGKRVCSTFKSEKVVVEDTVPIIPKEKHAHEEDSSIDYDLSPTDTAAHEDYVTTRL

mouse TRPC7 = molecular target: T2, mouse TRPC7 (Mus musculus, UniProt Q9WVC5); assay: Fluorescence Ca2+ assay in TRPC7-HEK293 cells; details: induced by 10 μM HDM
T2 sequence (Q9WVC5 1-862): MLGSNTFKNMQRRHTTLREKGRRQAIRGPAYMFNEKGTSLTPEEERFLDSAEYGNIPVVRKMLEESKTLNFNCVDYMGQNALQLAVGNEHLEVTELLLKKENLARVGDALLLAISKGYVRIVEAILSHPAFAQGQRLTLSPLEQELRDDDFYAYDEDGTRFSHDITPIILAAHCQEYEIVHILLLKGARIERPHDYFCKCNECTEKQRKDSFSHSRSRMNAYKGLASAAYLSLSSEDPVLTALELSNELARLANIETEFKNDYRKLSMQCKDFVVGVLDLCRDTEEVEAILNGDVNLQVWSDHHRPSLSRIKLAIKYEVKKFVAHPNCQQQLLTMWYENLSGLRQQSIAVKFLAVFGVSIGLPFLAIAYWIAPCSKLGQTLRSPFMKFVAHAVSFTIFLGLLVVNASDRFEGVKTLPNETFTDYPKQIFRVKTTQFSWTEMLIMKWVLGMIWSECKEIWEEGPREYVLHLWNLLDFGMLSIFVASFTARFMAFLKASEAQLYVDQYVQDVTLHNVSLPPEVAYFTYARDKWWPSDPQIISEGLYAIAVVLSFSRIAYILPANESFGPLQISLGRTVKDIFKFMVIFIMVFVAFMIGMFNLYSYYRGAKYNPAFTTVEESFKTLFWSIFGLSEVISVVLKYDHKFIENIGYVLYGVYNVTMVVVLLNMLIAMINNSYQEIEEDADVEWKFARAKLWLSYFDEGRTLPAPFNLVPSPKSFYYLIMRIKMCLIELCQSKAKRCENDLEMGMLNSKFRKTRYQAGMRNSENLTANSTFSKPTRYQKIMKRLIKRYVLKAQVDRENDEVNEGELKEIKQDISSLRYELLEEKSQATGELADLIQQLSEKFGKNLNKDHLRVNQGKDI

human TRPC3 = molecular target: T3, human TRPC3 (Homo sapiens, UniProt Q13507); assay: Fluorescence Ca2+ assay in TRPC3-HEK293 cells
T3 sequence (Q13507 1-921): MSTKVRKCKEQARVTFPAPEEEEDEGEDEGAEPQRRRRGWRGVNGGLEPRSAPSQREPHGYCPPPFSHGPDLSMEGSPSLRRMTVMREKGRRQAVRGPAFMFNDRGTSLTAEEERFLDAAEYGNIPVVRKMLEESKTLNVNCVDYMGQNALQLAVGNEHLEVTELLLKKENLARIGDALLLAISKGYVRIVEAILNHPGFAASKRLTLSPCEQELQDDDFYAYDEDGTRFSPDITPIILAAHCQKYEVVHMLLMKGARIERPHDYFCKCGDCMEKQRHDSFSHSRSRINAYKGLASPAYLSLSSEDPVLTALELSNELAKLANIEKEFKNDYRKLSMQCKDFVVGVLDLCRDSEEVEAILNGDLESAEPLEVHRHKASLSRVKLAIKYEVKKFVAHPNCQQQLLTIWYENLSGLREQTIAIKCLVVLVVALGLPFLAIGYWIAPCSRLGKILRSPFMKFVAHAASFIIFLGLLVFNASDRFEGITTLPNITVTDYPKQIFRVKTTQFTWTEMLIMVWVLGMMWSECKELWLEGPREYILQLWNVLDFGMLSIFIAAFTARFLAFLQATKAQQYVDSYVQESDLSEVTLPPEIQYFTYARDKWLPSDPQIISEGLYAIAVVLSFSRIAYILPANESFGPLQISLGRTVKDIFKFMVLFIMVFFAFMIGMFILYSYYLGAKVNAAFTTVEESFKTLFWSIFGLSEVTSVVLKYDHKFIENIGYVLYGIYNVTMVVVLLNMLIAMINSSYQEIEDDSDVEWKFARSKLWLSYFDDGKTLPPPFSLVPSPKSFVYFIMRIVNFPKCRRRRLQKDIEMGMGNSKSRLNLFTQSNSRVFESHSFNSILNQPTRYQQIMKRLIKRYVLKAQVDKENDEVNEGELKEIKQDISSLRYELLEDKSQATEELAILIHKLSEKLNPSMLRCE

TRPA1 = TRPA1 (Homo sapiens, UniProt O75762); assay: Selectivity Ca2+ assay in TRPA1-expressing HEK293 cells; details: 1s 50 μM; Fluo-8
TRPA1, sequence (O75762 whole entry, species assumed): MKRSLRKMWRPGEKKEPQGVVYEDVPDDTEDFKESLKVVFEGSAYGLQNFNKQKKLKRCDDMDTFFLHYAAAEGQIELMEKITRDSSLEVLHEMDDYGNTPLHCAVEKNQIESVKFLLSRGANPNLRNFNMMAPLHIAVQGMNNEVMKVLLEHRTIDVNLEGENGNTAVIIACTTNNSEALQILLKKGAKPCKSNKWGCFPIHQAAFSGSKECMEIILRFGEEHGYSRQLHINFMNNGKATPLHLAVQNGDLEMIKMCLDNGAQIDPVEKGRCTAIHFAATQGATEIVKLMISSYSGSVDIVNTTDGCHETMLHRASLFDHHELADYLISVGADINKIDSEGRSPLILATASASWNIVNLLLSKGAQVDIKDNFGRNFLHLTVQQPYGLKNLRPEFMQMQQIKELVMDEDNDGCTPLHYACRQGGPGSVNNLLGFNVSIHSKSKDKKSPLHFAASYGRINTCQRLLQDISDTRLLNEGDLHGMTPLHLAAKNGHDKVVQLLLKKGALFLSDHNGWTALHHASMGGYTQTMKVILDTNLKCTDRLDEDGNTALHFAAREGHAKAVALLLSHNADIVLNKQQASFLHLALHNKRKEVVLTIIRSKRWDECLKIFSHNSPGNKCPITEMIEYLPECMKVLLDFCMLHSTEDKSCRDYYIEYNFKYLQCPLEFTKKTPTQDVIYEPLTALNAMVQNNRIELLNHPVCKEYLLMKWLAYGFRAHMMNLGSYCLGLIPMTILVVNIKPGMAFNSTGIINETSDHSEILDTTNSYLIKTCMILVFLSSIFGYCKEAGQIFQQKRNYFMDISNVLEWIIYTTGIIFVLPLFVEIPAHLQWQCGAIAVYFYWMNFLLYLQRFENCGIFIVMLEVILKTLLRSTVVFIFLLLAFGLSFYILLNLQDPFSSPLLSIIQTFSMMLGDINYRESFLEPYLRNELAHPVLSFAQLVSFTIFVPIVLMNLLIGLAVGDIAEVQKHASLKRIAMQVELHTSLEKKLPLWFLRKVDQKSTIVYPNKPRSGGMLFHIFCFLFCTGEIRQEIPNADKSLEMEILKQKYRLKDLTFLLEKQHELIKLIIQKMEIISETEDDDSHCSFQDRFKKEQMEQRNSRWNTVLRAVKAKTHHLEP

COc1cccc2sc(N(CCN(C)C)C(=O)c3ccc4c(c3)CCCC4)nc12 [Compound 1s, N-(2-(dimethylamino)ethyl)-N-(4-methoxybenzo[d]thiazol-2-yl)-5,6,7,8-tetrahydronaphthalene-2-carboxamide]
Effect on TRPC4 (mouse TRPC4): only partially inhibited
Effect on Ca2+ response in TRPC7-HEK293 cells (mouse TRPC7): almost did not cause a discernible Ca^2+ response; also recorded: little or no effect; also recorded: no effect
IC50 (human TRPC3): 3.3 ± 0.13 µM
Effect on agonist-induced Ca2+ response, TRPA1 (TRPA1): did not significantly affect
